≈ marks a conversion by molar mass, not a printed value. Read-outs that look alike come from different tables or passages of the source.
Assays:
[1] = tested on: SARS-CoV-2 "NRC-03-nhCoV" virus; assay: In vitro anti-SARS-CoV-2 activity, IC50 by reduction of virus-induced cytopathic effect in Vero-E6 cells; type: cell-based; settings: read-out: inhibitory concentration 50% (IC50) against NRC-03-nhCoV
[2] = Cytotoxicity (CC50) determination, crystal violet assay; type: cell-based; settings: African green monkey
Description: To assess the half-maximal cytotoxic concentration (CC50), stock solutions of the compounds were prepared in 10% DMSO in ddH2O and diluted further to the working solutions with DMEM. The cytotoxic activity of the extracts was tested in VERO-E6 cells by using a crystal violet assay, as previously described with minor modifications. Briefly, the cells were seeded in 96 well-plates (100 µL/well at a density of 3 × 10^5 cells/mL) and incubated for 24 h at 37 °C in 5% CO2. Control cells were treated with 1% DMSO in DMEM (the concentration of DMSO in the highest concentration of the tested samples). After 24 h, the cells were treated with various concentrations of the compounds in triplicates. After 72 h, the supernatant was discarded, and the cell monolayers were fixed with 10% formaldehyde for 1 h at room temperature (RT). The fixed monolayers were, then, dried and stained with 50 µL of 0.1% crystal violet for 20 min on a bench rocker at RT. The monolayers were, then, washed and dried, and the crystal violet dye in each well was dissolved with 200 µL methanol for 20 min on a bench rocker at RT. […]
All experiments were performed in three biological repeats. […] The IC50 and CC50 curves represent the nonlinear fit of “normalize” of “transform” of the obtained data; their values were calculated using GraphPad prism as “best fit value”.

SARS-CoV-2 Mpro = settings: stated in the abstract for the reference standard; method and reference not given; cited from earlier work
[3] = Severe acute respiratory syndrome coronavirus 2, Vero C1008, 72 h

Work on `COc1ccc(-c2cc(=O)c3c(O)c(OC)c(O)cc3o2)cc1` [Compound 2, Pectolinarigenin] yielded an IC50 [1, 3] of 12.4 µg/mL (≈ 39.5 µM).

For `COc1ccc(-c2cc(=O)c3c(OC)c(OC)c(OC)c(OC)c3o2)cc1` [Compound 3, Tangeretin], the IC50 [1, 3] was 2.5 µg/mL (≈ 6.71 µM).

Compound `COc1ccc(-c2cc(=O)c3c(O)c(OC)c(OC)c(OC)c3o2)cc1` [Compound 4, Gardenin B] has a CC50 at 72 h [2] of 14100 µg/mL (≈ 39400 µM) and an IC50 ([1]; Severe acute respiratory syndrome coronavirus 2, Vero C1008, Vero-E6 cells, 100 TCID50, 72 h, CPE reduction) of 128 µg/mL (≈ 357 µM).

Work on `COc1c(O)cc2oc(-c3ccc(O)cc3)cc(=O)c2c1O` [Compound 5, Hispidulin] yielded a CC50 at 72 h ([2]; Vero E6 cells, 72 h, crystal violet, read-out: half-maximal cytotoxic concentration (CC50)) of 14100 µg/mL (≈ 47100 µM) and an IC50 [1, 3] of 883 µg/mL (≈ 2940 µM).

For `CC(C)(C)OC(=O)Nc1cccn(C(CC2CC2)C(=O)NC(CC2CCNC2=O)C(=O)C(=O)NCc2ccccc2)c1=O` (stereo not shown) [KI], the IC50 (SARS-CoV-2 Mpro) is given as 66.72 µg/mL (≈ 112 µM).

Source: PMC8587465, “Naturally Available Flavonoid Aglycones as Potential Antiviral Drug Candidates against SARS-CoV-2” (Molecules, 2021)
